Test results as given in patent US20260257992A1, “AGONISTS OF SMALL HETERODIMER PARTNER FOR CANCER THERAPY” (THE BOARD OF TRUSTEES OF THE UNIVERSITY OF ILLINOIS, priority 2023, published 2026).

Assays:
4T1 tumors = assay: Orthotopic 4T1 primary tumor growth; type: in vivo, mouse; details: DSHN combined with αPDL1
From the text: FIG. 3A-3F. DSHN, a tool small molecule agonist of NR0B2 reduces macrophage/dendritic cell induced Treg expansion and tumor growth in murine models. […] (B) Dendritic cells (left-CD11B^+; CD11C^+) and CD4^+ T cells (right) were isolated from MMTV-PyMT tumors by FACS, and treated with vehicle or DSHN for 3d. The resulting frequency of Treg (CD4^+; CD25^+; FoxP3^+) was quantified by flow cytometry (right graph), (N=3-5/group, t test). […] The percentage of divided CD8+ T cells in the second round was quantified. (D) DSHN increases efficacy of αPDL1 therapy on orthotopic E0771 tumors. An optimal number of E0771 cells were grafted into FoxP3-EGFP mice and allowed to grow until tumors reached 100 mm^3. […] At the end of the study, lungs were removed and imaged ex vivo, quantified data indicated (N=10, 1-way ANOVA followed by Newman-Keuls multiple comparison test). […]
We then evaluated DSHN in a model where a low, suboptimal number of E0771-luc cells were grafted orthotopically. […] Treatment was ceased after 18 days and mice were monitored through time. […] We next assessed the effects of DSHN combined with αPDL1 on growth of primary tumors (optimal number of cells used to establish graft). […] We then evaluated the ability of DSHN to impact established metastatic disease—a stage that is refractory to standard of care therapy and immune checkpoint blockade. […]

breast cancer cell lines = assay: Proliferation of breast cancer cell lines; type: cell-based
From the text: Protective attributes of NR0B2 are likely due to its expression in myeloid cells. […] Among human PBMCs, various subtypes of dendritic cells (DCs) and monocyte populations had elevated expression of NR0B2.

IL1b mRNA = IL1b mRNA reduction in Raw cells; type: cell-based; parameters: key: ✓: using strict cutoffs with respect to DSHN for passing each metric; X: using strict cutoffs with respect to DSHN for passing each metric; details: pass/fail with respect to DSHN
From the text: Development of a more efficacious NR0B2 agonist. While DSHN was a useful proof-of-concept small molecule, macrophages required high doses and chronic exposure for robust influences on subsequent Tregs expansion. […] Therefore, we synthesized several derivatives of DSHN and screened them using a reporter assay which makes use of the endogenous cholesterol homeostatic feedback loop, where FXR activation upregulates NR0B2, which then inhibits LXR and its normal induction of ABCA1. We then followed this screen with several others with stringent cutoffs: effect on endogenous ABCA1 and IL1β expression, reduction of Treg expansion in either macrophage or DC co-cultures, and low cellular toxicity (FIG. 5A, Table 4).

Lewis Lung tumors = Lewis Lung tumors grown in the flank; type: in vivo, mouse
From the text: FIG. 7A-7I. DSHN-OMe reduces tumor and metastatic growth in murine models, in a myeloid cell-NR0B2 dependent manner. (A) E0771 cells were grafted into control mice (NR0B2^+/+; LysMCre^+) or mice where NR0B2 was knocked out in myeloid immune cells (NR0B2^fl/fl; LysMCre^+). 8 days post-graft, daily treatment with placebo or DSHN-OMe was initiated and subsequent tumor growth followed through time. Different letters denote statistical difference on the final measurement (day 21, 2-Way ANOVA followed by Šidák's post-hoc, N=5-8). (B) Waterfall plot illustration of data in (A) showing tumor volume at final day of measurement. Asterisk indicates significant difference (Chi-squared test, P<0.05). (C) Lewis Lung cells were grafted into control mice (NR0B2^+/+; LysMCre^+) or mice where NR0B2 was knocked out in myeloid immune cells (NR0B2^fl/fl; LysMCre^+). 10 days post-graft, daily treatment with placebo or DSHN-OMe was initiated and subsequent tumor growth followed through time. […] (G) EMT6 metastatic lungs were assessed for Ki67 mRNA and (H) FOXP3 mRNA. (I) EMT6 metastatic lungs were assessed for CD8+ cytotoxic T cells (CD8+). […]
Since Tregs are considered a problem common to many solid tumor types, we reasoned that DSHN-OMe should have broad efficacy. To test this, we evaluated the ability of DSHN-OMe to influence the growth of murine Lewis Lung tumors grown in the flank.

Compound | Growth of established 4T1 tumors, combined with αPDL1 (4T1 tumors) | Proliferation of breast cancer cell lines (breast cancer cell lines) | IL1b mRNA reduction (Raw Cells) (IL1b mRNA) | Lewis Lung tumor growth (Lewis Lung tumors; NR0B2-replete mice, daily treatment from day 10, versus placebo) | Lewis Lung anti-tumor effect, dependence on myeloid NR0B2 (Lewis Lung tumors; NR0B2fl/fl, LysMCre+ versus replete mice)
CCN(CC)S(=O)(=O)c1cccc2cc(C(=O)O)c(O)cc12 [DSHN, reference compound] | decreased growth | no effect on proliferation |  |  | 
CCN(CC)S(=O)(=O)c1cccc2cc(C(=O)OC)c(O)cc12 [DSHN-OMe, Methyl 5-(N,N-diethylsulfamoyl)-3-hydroxy-2-naphthoate] |  |  | ✓ | significantly reduced tumor growth | only observed in mice with replete myeloid cell expression of NR0B2
